In patent publication US20260022118A1, “HETEROCYCLIC COMPOUNDS AS NRAS INHIBITORS” (Board of Regents, The University of Texas System, priority 2023, published 2026) one finds Kd and IC50 data, which are given here for 17 compounds.

In general, Kd refers to the concentration at which binding is half-saturated. High values mean weaker binding, low ones tighter binding. A word on the IC50: it is the concentration needed to halve the response being measured.

SMILES strings stand for the structures. Read-outs that look alike come from different tables or passages of the source.

In one assay the target is NRAS G12D C118S (Homo sapiens (Human), UniProt P01111, C118S/G12D). As to the kind of experiment: NRas G12D Surface Plasmon Resonance (SPR) binding assay. Particulars: Avi-tagged biotinylated NRAS G12D C118S on streptavidin chip, 25° C., 1:1 kinetic or steady-state fit. How it is done:
NRas G12D Surface Plasmon Resonance (SPR) Binding Assay
This Example illustrates that exemplary compounds and salts thereof described herein bind to NRAS G12D as measured by surface plasmon resonance (SPR).
Two liters of 1.03× running buffer (1.03×HBS-P+pH 7.4, containing 0.0103 M HEPES, 0.1545 M NaCl, 0.0515% v/v Surfactant P20 (Cytiva®, BR100671); 5.15 mM MgCl2 (Invitrogen, AM9530G); 0.515 mM TCEP, pH 8.0 (GoldBio®, TCEP25)) was prepared and filter sterilized using a 0.22 μm filter. A 1-L volumetric flask was filled partway with this buffer. A 30-mL volumetric flask was used to measure 30 mL of 100% DMSO (Sigma Aldrich®, 41639-100ML) which was added to the 1-L flask. The solution in the 1-L flask was brought up to 1 L with 1.03× buffer, resulting in a 1.0× assay running buffer containing 1.0×HBS-P+, 5 mM MgCl2, […], and 3% DMSO. Remaining 1.03× buffer was used for preparation of samples and immobilization running buffer.
Samples were prepared in a standard conical-bottomed 384-well microplate by adding 2 μL 10 mM DMSO cpd stock to each well, followed by 8 μL DMSO. A control compound was selected based off of its relatively “fast” kinetics that could be fitted by 1:1 kinetic fitting, as well as by steady-state fitting. Control wells for periodic injection to assess protein activity throughout the assay were also assembled, by diluting 10 mM compound 1:30 in DMSO, then adding 20 μL to the appropriate wells, such that the final concentration of compound would be 10 μM, and the final concentration of DMSO would be 3%. A Biomek™ FXP Laboratory Automation Workstation was used to stamp 20 μL DMSO into all sample wells—minus the control wells—according to the plate map, and then serially dilute 1:3 by mixing and aspirating 10 μL, delivering into the 20 μL of DMSO in the next well, resulting in 10-point serial dilution curves. A Biotek™ Multiflo EL406 Washer Dispenser was used to deliver 80 μL of 1.03× buffer to the compound plate. The plate was mixed 10× by FX, then a final dilution was performed by stamping 18 μL from the compound plate into a 384-well deep-well plate that had also been previously filled with 102 μL 1.03× buffer via the Multiflo. The solution in the deep-well plate was mixed 10× by FX, then sealed with a 384-well microplate foil from Cytiva® (Cytiva® BR100577) and placed on an orbital shaker for 30 minutes at 1000 RPM to ensure complete mixing of the DMSO solution in the buffer. A solvent correction curve was also prepared by making a 4% DMSO solution in 1.03× buffer and diluting in 1.03× buffer such that there were eight solutions of decreasing DMSO concentrations resulting in a high DMSO concentration of 4% and a low concentration of 2% DMSO.
Immobilization running buffer was prepared in a 200-mL volume by diluting 1.03× running buffer prepared above to 1.0×. A Cytiva® Streptavidin chip (Cytiva®, 29104992) was docked into a Biacore™ S200 instrument, and the instrument was then primed three times into the immobilization running buffer. A protein stock of Avi-tagged NRAS G12D C118S was prepared in-house and biotinylated using the Bulk BirA: BirA biotin-protein ligase bulk reaction kit from Avidity (Avidity®, Bulk BirA). Upon completion of the biotinylation reaction, Amicon® ultra 0.5-mL Centrifugal Filters with a MWCO of 3 k Da (Millipore® UFC500396) were used to reduce the free biotin concentration below 0.1 μM in the protein sample over the course of eight desalting cycles, according to the manufacturer's protocol. Resulting protein concentration was not measured directly as an accurate protein concentration is not required for immobilizing protein on the chip surface; however, a theoretical yield of ≤1.5 mg/mL was estimated based off of retained volumes during the desalting process. Reagents for immobilization were prepared as instructed in the Biacore™ 5200 Control Software Immobilization Wizard, including solutions of 1 M NaCl in 50 mM NaOH, and 1 M NaCl in 50 mM NaOH and 50% isopropyl alcohol. […]

The test system of assay [1] is THP-1 cells expressing G12D (NRAS G12D). The assay can be described thus: Inhibition of NRAS G12D-mediated phosphorylation of ERK (AlphaLISA p-ERK1/2) in THP-1 cells. The class given is cell-based. To be noted: 2 hours incubation, HBSS with 0% or 10% FBS, p-ERK1/2 (Thr202/Tyr204) AlphaLISA, read-out: pERK THP-1 IC50. Here is the method: Inhibition of NRAS G12D-Mediated Phosphorylation of ERK by Exemplary Compounds of Formulas I, II, and III.
This Example illustrates that exemplary compounds and salts thereof described herein inhibit the phosphorylation of ERK downstream of NRAS G12D.
THP-1 cells (ATCC TIB-202) expressing G12D were maintained in RPMI-1640 medium supplemented with 10% fetal bovine serum (FBS), 0.05 mM 2-mercaptoethanol, and penicillin/streptomycin. Cells (20,000/well) were seeded onto a 384 well plate in 20 μL of HBSS supplemented with 0% or 10% FBS. Cells were incubated in the absence or presence of various concentrations of test compound (final 1% DMSO) for 2 hours. p-ERK expression was assessed using the AlphaLISA SureFire Ultra p-ERK1/2 (Thr202/Tyr204) (PerkinElmer®, ALSU-PERK-A10K) following manufacturer recommendation. Plates were read on a PerkinElmer® Envision Multimode plate reader. Dose-response curves were analyzed using IC50 regression curve fitting (GeneData Screener). Curves were plotted as a percent control and normalized by high controls without inhibitor (100%), and low controls (0%) containing 1 μM of trametinib, a potent MEK inhibitor.
For orientation: In Alpha technology, singlet oxygen from a donor bead excites a nearby acceptor bead.

Sequence of NRAS G12D C118S (P01111 whole entry G12D/C118S): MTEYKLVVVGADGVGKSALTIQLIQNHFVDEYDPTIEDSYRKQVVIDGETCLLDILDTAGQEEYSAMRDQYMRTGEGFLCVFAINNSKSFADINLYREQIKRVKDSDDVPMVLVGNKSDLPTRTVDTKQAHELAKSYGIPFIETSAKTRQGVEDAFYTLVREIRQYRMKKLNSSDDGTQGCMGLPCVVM

At NRAS G12D C118S, `C#Cc1c(F)ccc2cc(O)cc(-c3cc4c(cn3)c(N3CC5CCC(C3)N5)nn4CCC)c12` [Example 7, 4-(3-(3,8-diazabicyclo[3.2.1]octan-3-yl)-1-propyl-1H-pyrazolo[4,3-c]pyridin-6-yl)-5-ethynyl-6-fluoronaphthalen-2-ol] came in with a Kd of 4.75 µM. The same measure, in the same setting: as for `C#Cc1c(F)ccc2cc(O)cc(-c3ncc4c(NCC5(N(C)C)CCC5)nn(CC)c4c3F)c12` [Example 12, 4-(3-(((1-(dimethylamino)cyclobutyl)methyl)amino)-1-ethyl-7-fluoro-1H-pyrazolo[4,3-c]pyridin-6-yl)-5-ethynyl-6-fluoronaphthalen-2-ol], the figure is 8.35 µM; as for `C#Cc1c(F)ccc2cc(O)cc(-c3ncc4c(N5CC6CCC(C5)N6)nn(C5CCC5)c4c3F)c12` [Example 16, 4-(3-(3,8-diazabicyclo[3.2.1]octan-3-yl)-1-cyclobutyl-7-fluoro-1H-pyrazolo[4,3-c]pyridin-6-yl)-5-ethynyl-6-fluoronaphthalen-2-ol], 5.65 µM; as for `C#Cc1c(F)ccc2cc(O)cc(-c3ncc4c(N5CCNCC5)nn(CC)c4c3F)c12` [Example 10, 4-(1-ethyl-7-fluoro-3-(piperazin-1-yl)-1H-pyrazolo[4,3-c]pyridin-6-yl)-5-ethynyl-6-fluoronaphthalen-2-ol], 38.7 µM. Compound `C#Cc1c(F)ccc2cc(O)cc(-c3ncc4c([C@H]5[C@@H]6CNC[C@@H]65)cn(C)c4c3F)c12` [Example 2, 4-(3-((1R,5S,6S)-3-azabicyclo[3.1.0]hexan-6-yl)-7-fluoro-1-methyl-1H-pyrrolo[3,2-c]pyridin-6-yl)-5-ethynyl-6-fluoronaphthalen-2-ol 2,2,2-trifluoroacetate] registered a Kd at NRAS G12D C118S of 0.0526 µM.

Turning to `C#Cc1c(F)ccc2cc(O)cc(-c3ncc4c(N5CC6CCC(C5)N6)nn(CCC)c4c3F)c12` [Example 14, 4-(3-(3,8-diazabicyclo[3.2.1]octan-3-yl)-7-fluoro-1-propyl-1H-pyrazolo[4,3-c]pyridin-6-yl)-5-ethynyl-6-fluoronaphthalen-2-ol], the Kd at NRAS G12D C118S stood at 4.41 µM.

For `C#Cc1c(F)ccc2cc(O)cc(-c3cc4c(cn3)c(N3C5CCC3CNC5)nn4C)c12` [Example 19, 4-(3-(3,8-diazabicyclo[3.2.1]octan-8-yl)-1-methyl-1H-pyrazolo[4,3-c]pyridin-6-yl)-5-ethynyl-6-fluoronaphthalen-2-ol], at NRAS G12D C118S, the affinity, expressed as Kd, was 6.1 µM. With `C#Cc1c(F)ccc2cc(O)cc(-c3cc4[nH]nc(N5CC6CCC(C5)N6)c4cn3)c12` [Example 18, 4-(3-(3,8-diazabicyclo[3.2.1]octan-3-yl)-1H-pyrazolo[4,3-c]pyridin-6-yl)-5-ethynyl-6-fluoronaphthalen-2-ol], the Kd at NRAS G12D C118S turned out to be 40.5 µM. Same read-out and setting: in the case of `C#Cc1c(F)ccc2cc(O)cc(-c3ncc4c([C@H]5[C@@H]6CNC[C@@H]65)c(CO)n(C)c4c3F)c12` [Example 23, 4-(3-((1R,5S,6s)-3-azabicyclo[3.1.0]hexan-6-yl)-7-fluoro-2-(hydroxymethyl)-1-methyl-1H-pyrrolo[3,2-c]pyridin-6-yl)-5-ethynyl-6-fluoronaphthalen-2-ol] it was 13.7 µM; in that of `C#Cc1c(F)ccc2cc(O)cc(-c3ncc4c(N5CC6CCC(C5)N6)n[nH]c4c3F)c12` [Example 17, 4-(3-(3,8-diazabicyclo[3.2.1]octan-3-yl)-7-fluoro-1H-pyrazolo[4,3-c]pyridin-6-yl)-5-ethynyl-6-fluoronaphthalen-2-ol], 30.8 µM. For the compound `C#Cc1c(F)ccc2cc(O)cc(-c3nc(C(F)(F)F)c4c([C@H]5[C@@H]6CNC[C@@H]65)nn(C5CC5)c4c3F)c12` [Example 55, 4-[3-(3-azabicyclo[3.1.0]hexan-6-yl)-1-cyclopropyl-7-fluoro-4-(trifluoromethyl)pyrazolo[4,3-c]pyridin-6-yl]-5-ethynyl-6-fluoro-naphthalen-2-ol], in assay [1] (Homo sapiens, THP-1, 2 h), the IC50 worked out at 0.499 µM. As for `C#Cc1c(F)ccc2cc(O)cc(-c3ncc4c([C@H]5[C@@H]6CN[C@@H](C(=O)OC)[C@@H]65)nn(C)c4c3F)c12` (racemic) [Example 48, methyl rac-(2R,6S)-6-[6-(8-ethynyl-7-fluoro-3-hydroxy-1-naphthyl)-7-fluoro-1-methyl-pyrazolo[4,3-c]pyridin-3-yl]-3-azabicyclo[3.1.0]hexane-2-carboxylate], in assay [1], the IC50 came to 6.47 µM. Turning to `C#Cc1c(F)ccc2cc(O)cc(-c3nc(N(CC)CC)c4c([C@H]5[C@@H]6CNC[C@@H]65)nn(C5CC5)c4c3F)c12` [Example 80, 4-(3-((1R,5S,6r)-3-azabicyclo[3.1.0]hexan-6-yl)-1-cyclopropyl-4-(diethylamino)-7-fluoro-1H-pyrazolo[4,3-c]pyridin-6-yl)-5-ethynyl-6-fluoronaphthalen-2-ol], in assay [1] (Homo sapiens, THP-1, 2 h), the IC50 stood at 0.126 µM. In the case of `C#Cc1c(F)ccc2cc(O)cc(-c3ncc4c(N5C[C@@H]6CNC[C@@H]65)nn(C5CC5)c4c3F)c12` [Example 37, 4-[1-cyclopropyl-3-[(1S,5R)-3,6-diazabicyclo[3.2.0]heptan-6-yl]-7-fluoro-pyrazolo[4,3-c]pyridin-6-yl]-5-ethynyl-6-fluoro-naphthalen-2-ol], the IC50 in assay [1] (Homo sapiens, THP-1, 2 h) was found to be 6.67 µM. As to `C#Cc1c(F)ccc2cc(O)cc(-c3nc(Cc4ccccc4)c4c([C@H]5[C@@H]6CNC[C@@H]65)nn(C5CC5)c4c3F)c12` [Example 52, 4-[3-(3-azabicyclo[3.1.0]hexan-6-yl)-4-benzyl-1-cyclopropyl-7-fluoro-pyrazolo[4,3-c]pyridin-6-yl]-5-ethynyl-6-fluoro-naphthalen-2-ol], the IC50 in assay [1] (Homo sapiens, THP-1, 2 h) came to 3.89 µM. Same read-out and setting: in the case of `C#Cc1c(F)ccc2cc(O)cc(-c3nc(C(C)=O)c4c([C@H]5[C@@H]6CNC[C@@H]65)nn(C5CC5)c4c3F)c12` [Example 84, 1-(3-((1R,5S,6r)-3-azabicyclo[3.1.0]hexan-6-yl)-1-cyclopropyl-6-(8-ethynyl-7-fluoro-3-hydroxynaphthalen-1-yl)-7-fluoro-1H-pyrazolo[4,3-c]pyridin-4-yl)ethan-1-one] it was 0.458 µM; in that of `C#Cc1c(F)ccc2cc(O)cc(-c3ncc4c(NCCN)nn(C)c4c3F)c12` [Example 93, 4-(3-((2-aminoethyl)amino)-7-fluoro-1-methyl-1H-pyrazolo[4,3-c]pyridin-6-yl)-5-ethynyl-6-fluoronaphthalen-2-ol], 9.26 µM.
